Counter-ions that a name gives are not always drawn.
Legend:
[1] = target: T1, MPS1 (Homo sapiens, UniProt P33981); format: biochemical; conditions: for Ki: calculated from mean IC50 using the Cheng-Prusoff equation; for MPS1 ligand efficiency (LE): from Ki
T1 sequence (P33981 1-857): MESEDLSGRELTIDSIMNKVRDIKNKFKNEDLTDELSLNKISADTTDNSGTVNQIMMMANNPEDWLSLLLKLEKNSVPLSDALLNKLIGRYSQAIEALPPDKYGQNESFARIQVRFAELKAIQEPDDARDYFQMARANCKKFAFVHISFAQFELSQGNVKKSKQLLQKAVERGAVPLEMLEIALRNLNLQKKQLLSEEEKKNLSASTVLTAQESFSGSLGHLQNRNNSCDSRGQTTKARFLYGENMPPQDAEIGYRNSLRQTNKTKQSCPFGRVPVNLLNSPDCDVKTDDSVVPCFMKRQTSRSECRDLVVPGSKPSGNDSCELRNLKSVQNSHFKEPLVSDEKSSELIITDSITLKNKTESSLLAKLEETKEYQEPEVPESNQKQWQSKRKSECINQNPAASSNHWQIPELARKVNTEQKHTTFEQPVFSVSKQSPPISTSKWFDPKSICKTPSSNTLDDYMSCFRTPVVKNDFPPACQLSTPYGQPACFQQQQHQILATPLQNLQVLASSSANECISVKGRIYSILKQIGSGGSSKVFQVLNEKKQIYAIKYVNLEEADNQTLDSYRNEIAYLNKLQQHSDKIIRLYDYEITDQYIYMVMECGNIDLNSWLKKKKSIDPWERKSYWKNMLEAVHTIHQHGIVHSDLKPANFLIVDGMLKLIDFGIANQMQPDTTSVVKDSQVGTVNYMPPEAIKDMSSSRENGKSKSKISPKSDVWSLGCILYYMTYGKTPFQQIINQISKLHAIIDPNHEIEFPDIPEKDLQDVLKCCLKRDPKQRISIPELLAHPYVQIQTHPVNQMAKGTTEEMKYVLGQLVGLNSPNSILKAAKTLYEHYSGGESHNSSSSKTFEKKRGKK
Protocol: (§1) IC50 values were obtained for an expanded version of the fragment library using the previously described mobility shift assay.[44] Subsequently, Ki values were estimated from IC50 values to allow better comparison of the activity against targets which were measured at different substrate concentrations (Supplementary data Table 1).
(§2) IC50 values for MPS1, Aurora A and Aurora B inhibition were determined as previously described,[44] and Ki values were estimated from the mean IC50 values using the Cheng-Prusoff equation.[48]
(§3) Kinase [ATP] (M) [Enzyme] (nM) [Peptide Substrate] (M) MgCl2 (mM)
(§4) For all compounds, IC50 values for MPS1, Aurora A, and Aurora B were determined
(§5) using MPS1 and Aurora A/B mobility shift assays as described previously.1 IC50
(§6) values were calculated from a four-parameter logistic fit of percentage inhibition
(§7) versus concentration (at 8 compound concentrations) using GraphPad Prism 5
(§8) (GraphPad Software, Inc., CA, USA). Mean IC50 values were determined from two
(§9) independent measurements each carried out in duplicate. Ki values were estimated
(§10) from the mean IC50 values using the Cheng-Prusoff equation.

[2] = target: Aurora B (Homo sapiens, UniProt Q96GD4); format: biochemical; conditions: for Ki: calculated from mean IC50 using the Cheng-Prusoff equation, read-out: AurB Ki; for AurB ligand efficiency (LE): from Ki;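 for all read-outs here: aurora B inhibition measured in a mobility shift assay, underlying mean IC50 taken from two independent duplicate runs at 8 compound concentrations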
Protocol: as §1, §2, §3, §4, §5, §6, §7, §8, §9, §10

[3] = target: T2, Aurora A (Homo sapiens, UniProt O14965); format: biochemical; conditions: for Ki: calculated from mean IC50 using the Cheng-Prusoff equation, read-out: AurA Ki; for AurA ligand efficiency (LE): from Ki
T2 sequence (O14965 1-403): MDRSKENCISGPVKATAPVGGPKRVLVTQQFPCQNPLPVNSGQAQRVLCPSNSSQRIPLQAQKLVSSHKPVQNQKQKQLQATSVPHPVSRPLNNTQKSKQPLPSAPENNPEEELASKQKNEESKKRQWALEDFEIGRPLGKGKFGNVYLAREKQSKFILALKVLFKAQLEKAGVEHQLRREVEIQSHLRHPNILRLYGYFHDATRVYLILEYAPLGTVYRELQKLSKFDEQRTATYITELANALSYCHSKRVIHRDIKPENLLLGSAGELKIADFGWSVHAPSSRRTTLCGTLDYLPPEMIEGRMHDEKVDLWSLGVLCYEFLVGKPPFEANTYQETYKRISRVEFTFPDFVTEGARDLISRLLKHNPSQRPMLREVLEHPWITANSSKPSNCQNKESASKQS
Protocol: as §1, §2, §3, §4, §5, §6, §7, §8, §9, §10

[4] = target: T1, MPS1; assay: biochemical; conditions: read-out: % Inhibition MPS1
Protocol: (§11) In order to test the biochemical activity of our fragment library, a panel of 26 structurally diverse protein kinases was used.
(§12) Screening of 26 kinases using a mobility shift assay
(§13) A mobility shift assay to determine kinase inhibition was carried out using a
(§14) modified version of the ProfilerPro assay kit 1 (Perkin Elmer, Coventry, UK)
(§15) including MPS1 and Aurora B. Each kit contained an enzyme plate, a substrate
(§16) plate, reconstitution buffer, 1 M DTT, protease inhibitor cocktail and termination
(§17) buffer. Test compounds were added as a solution in DMSO.
(§18) peptide phosphorylation assay was carried out as per the manufacturer’s
(§19) instructions. The electrophoretic separation and analysis of the phosphorylated
(§20) and non-phosphorylated peptides was carried out on a 4-sipper chip using a
(§21) LabChip EZReader II (Perkin Elmer). Results were expressed as % inhibition of
(§22) peptide phosphorylation relative to control wells for 0 % (no test compound) and
(§23) 100 % (no ATP) inhibition. The percentage inhibition was calculated using the
(§24) % Inhibition = [1 - (% Conversion Sample / % Conversion 0% Inhibition Control)] x 100

[5] = target: T3, SRC (Homo sapiens, UniProt P12931); assay: 26-kinase panel mobility shift assay, single concentration; format: biochemical; conditions: read-out: % Inhibition SRC
T3 construct: purchased Perkin Elmer (ProfilerPro assay kit 1)
Protocol: as §11, §12, §13, §14, §15, §16, §17, §18, §19, §20, §21, §22, §23, §24

[6] = target: T4, AKT2 (Homo sapiens, UniProt P31751); assay: as above; format: biochemical; conditions: read-out: % Inhibition AKT2
T4 construct: purchased Perkin Elmer ProfilerPro assay kit 1
Protocol: as §11, §12, §13, §14, §15, §16, §17, §18, §19, §20, §21, §22, §23, §24

[7] = target: T5, INSR (Homo sapiens, UniProt P06213); assay: as above; format: biochemical; conditions: read-out: % Inhibition INSR
T5 construct: purchased Perkin Elmer (ProfilerPro assay kit 1)
T5 sequence (P06213 28-1382): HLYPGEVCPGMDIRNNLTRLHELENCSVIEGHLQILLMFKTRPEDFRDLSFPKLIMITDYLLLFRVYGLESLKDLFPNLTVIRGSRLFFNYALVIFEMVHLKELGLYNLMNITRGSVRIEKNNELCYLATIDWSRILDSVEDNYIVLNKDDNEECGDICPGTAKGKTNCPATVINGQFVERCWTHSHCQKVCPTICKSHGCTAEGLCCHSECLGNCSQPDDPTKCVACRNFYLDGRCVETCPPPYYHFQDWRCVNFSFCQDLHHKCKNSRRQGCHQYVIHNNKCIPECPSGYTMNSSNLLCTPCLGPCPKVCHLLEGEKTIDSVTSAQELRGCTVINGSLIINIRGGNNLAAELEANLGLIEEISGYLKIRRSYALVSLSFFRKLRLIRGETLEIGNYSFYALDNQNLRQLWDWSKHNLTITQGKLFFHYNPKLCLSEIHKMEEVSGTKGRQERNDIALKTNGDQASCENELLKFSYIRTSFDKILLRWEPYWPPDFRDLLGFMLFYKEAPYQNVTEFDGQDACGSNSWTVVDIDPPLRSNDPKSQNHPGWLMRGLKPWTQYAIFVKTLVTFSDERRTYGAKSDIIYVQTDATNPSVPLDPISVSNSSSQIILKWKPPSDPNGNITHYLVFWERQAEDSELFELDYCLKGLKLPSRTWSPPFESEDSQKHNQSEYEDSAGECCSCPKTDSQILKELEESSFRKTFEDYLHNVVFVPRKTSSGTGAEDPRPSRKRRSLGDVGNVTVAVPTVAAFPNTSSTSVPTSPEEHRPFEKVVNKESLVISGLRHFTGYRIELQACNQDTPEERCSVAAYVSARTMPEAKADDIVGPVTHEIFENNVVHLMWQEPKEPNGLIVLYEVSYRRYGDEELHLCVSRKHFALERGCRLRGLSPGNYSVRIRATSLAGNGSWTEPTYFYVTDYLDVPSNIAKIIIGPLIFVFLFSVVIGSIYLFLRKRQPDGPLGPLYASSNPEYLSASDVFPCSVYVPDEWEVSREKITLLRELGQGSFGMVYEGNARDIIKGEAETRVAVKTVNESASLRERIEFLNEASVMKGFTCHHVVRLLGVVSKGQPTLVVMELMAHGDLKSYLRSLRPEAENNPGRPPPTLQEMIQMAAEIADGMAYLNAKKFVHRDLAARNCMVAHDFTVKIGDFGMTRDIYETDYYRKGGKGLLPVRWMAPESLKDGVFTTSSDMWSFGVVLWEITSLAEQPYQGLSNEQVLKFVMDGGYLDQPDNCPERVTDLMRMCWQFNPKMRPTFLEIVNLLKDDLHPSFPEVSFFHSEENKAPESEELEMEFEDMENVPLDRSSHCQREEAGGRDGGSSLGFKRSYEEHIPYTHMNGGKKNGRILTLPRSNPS
Protocol: as §11, §12, §13, §14, §15, §16, §17, §18, §19, §20, §21, §22, §23, §24

Aurora B, sequence (Q96GD4 whole entry): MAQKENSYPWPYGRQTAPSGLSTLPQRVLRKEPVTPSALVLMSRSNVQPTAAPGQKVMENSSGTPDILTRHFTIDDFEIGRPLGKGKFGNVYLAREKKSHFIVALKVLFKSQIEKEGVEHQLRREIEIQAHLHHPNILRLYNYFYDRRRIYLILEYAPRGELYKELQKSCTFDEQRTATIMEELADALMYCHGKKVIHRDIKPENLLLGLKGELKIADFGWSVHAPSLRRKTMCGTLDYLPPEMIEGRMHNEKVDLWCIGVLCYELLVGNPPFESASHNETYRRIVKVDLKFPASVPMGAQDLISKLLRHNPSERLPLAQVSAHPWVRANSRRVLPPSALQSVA
T3 sequence (P12931 whole entry): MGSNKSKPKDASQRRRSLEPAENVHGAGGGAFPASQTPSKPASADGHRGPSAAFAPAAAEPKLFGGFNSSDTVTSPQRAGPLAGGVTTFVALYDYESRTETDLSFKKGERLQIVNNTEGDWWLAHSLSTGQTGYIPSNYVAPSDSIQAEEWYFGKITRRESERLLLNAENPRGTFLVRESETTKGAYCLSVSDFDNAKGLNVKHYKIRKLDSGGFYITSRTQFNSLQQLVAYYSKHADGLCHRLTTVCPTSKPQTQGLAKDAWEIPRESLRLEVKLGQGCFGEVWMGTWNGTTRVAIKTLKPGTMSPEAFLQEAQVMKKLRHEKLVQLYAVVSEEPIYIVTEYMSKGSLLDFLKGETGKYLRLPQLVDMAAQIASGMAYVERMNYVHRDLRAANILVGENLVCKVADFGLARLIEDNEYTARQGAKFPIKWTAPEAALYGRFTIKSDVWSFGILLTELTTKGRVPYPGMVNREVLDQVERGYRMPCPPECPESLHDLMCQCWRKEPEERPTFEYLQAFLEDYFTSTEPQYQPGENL
T4 sequence (P31751 whole entry): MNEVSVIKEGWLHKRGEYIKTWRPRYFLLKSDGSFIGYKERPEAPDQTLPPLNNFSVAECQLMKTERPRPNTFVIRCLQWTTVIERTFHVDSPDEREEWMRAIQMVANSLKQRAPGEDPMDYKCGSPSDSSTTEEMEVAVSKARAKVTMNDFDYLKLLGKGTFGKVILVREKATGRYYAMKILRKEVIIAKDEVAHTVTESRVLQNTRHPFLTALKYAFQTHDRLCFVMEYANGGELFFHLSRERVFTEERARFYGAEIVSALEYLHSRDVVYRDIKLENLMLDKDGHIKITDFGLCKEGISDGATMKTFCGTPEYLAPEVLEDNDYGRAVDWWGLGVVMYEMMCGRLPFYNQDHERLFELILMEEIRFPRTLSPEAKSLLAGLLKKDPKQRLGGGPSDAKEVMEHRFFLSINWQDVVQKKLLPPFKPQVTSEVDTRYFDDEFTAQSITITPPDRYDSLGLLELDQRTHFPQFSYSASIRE

SMILES | melting point | Ki [1] | MPS1 ligand efficiency (LE) [1] | Ki [2] | AurB ligand efficiency (LE) [2] | Ki [3] | AurA ligand efficiency (LE) [3] | inhibition at 100 µM [4] | inhibition at 100 µM [5] | inhibition at 100 µM [6] | inhibition at 100 µM [7]
Nc1cc(-c2cncnc2)c[nH]c1=O (as salt: sodium) [Compound 10, 3-Amino-5-(pyrimidin-5-yl)pyridin-2(1H)-one] | 240 °C |  |  |  |  |  |  |  |  |  | 
Nc1cc(-c2ccccc2)cnc1O [Compound 9, 3-Amino-5-phenyl-pyridin-2-one] |  | 128 µM | 0.38 | 70.3 µM | 0.40 | 66.9 µM | 0.41 |  |  |  | 
Nc1cc(-c2cncnc2)c[nH]c1=O [Compound 10, 3-Amino-5-(pyrimidin-5-yl)pyridin-2(1H)-one] |  | 269 µM | 0.35 | 18.7 µM | 0.46 | 89.6 µM | 0.39 |  |  |  | 
Nc1cc(-c2cccnc2)c[nH]c1=O [Compound 11] |  | 98.1 µM | 0.39 | 97.2 µM | 0.39 | 125 µM | 0.38 |  |  |  | 
Cc1[nH]c(=O)c(C#N)cc1-c1ccncc1 [Compound 13, Milrinone, reference compound] |  | > 100 µM |  | > 100 µM |  | > 100 µM |  |  |  |  | 
Cc1[nH]c(=O)c(C(N)=O)cc1-c1ccncc1 [Compound 14] |  | > 100 µM |  | > 100 µM |  | > 100 µM |  |  |  |  | 
COc1cccc(C(=O)Nc2cc(-c3ccncc3)c[nH]c2=O)c1 [Compound 17, 3-Methoxy-N-(2-oxo-5-(pyridin-4-yl)-1,2-dihydropyridin-3-yl)benzamide] | 287 °C | 24.8 µM |  |  |  |  |  | 42% | 59% | 50% | 21%
COc1cc(OC)cc(C(=O)Nc2cc(-c3ccncc3)c[nH]c2=O)c1 [Compound 18, 3,5-Dimethoxy-N-(2-oxo-5-(pyridin-4-yl)-1,2-dihydropyridin-3-yl)benzamide] |  | 30.1 µM |  | 32.9 µM |  | > 100 µM |  |  |  |  | 
O=C(Nc1cc(-c2ccncc2)c[nH]c1=O)c1cccc(F)c1 [Compound 19, 3-Fluoro-N-(2-oxo-5-(pyridin-4-yl)-1,2-dihydropyridin-3-yl)benzamide] | 292 °C | > 100 µM |  | > 100 µM |  | > 100 µM |  |  |  |  | 
O=C(Nc1cc(-c2ccncc2)c[nH]c1=O)c1cc(F)cc(F)c1 [Compound 20] | 293 °C |  |  |  |  |  |  |  |  |  | 
O=c1[nH]cc(-c2ccncc2)cc1NS(=O)(=O)c1ccccc1 [Compound 21] | 289 °C | > 100 µM |  | > 100 µM |  | > 100 µM |  |  |  |  | 
O=C(Nc1cc(-c2ccncc2)c[nH]c1=O)c1ccc(N2CCCCC2)cc1 [Compound 23] | 284 °C | 2.9 µM | 0.27 | 7.4 µM | 0.25 | 2.6 µM | 0.27 |  |  |  | 

Source: paper PMC6008489 (Bioorganic & Medicinal Chemistry, 2018)
